Patent publication US20140135357A1, “DOSE REGIME FOR CAMPTOTHECIN DERIVATIVES” (Taiwan Liposome Company, Ltd., priority 2012, published 2014)
Read-outs that look alike come from different tables or passages of the source.

How the values were obtained:
clinical = conditions: human, in vivo
Procedure: (§1) A non-randomized phase I clinical trial was conducted at 4 institutions in the US and Taiwan.
(§2) Patients were included in this trial if they are over the age of 18, with advanced cancer and the ECOG performance status is 0 or 1. […] Patients were excluded from the study if they have previously received more than 3 regimens of chemotherapy, or if they have received chemotherapy or radiotherapy within 4 weeks of the trial recruitment.
(§3) Eligible patients were given the pharmaceutical composition of the present invention, comprising a mixture of TLC388HCl and mPEG2000-DSPE in a molar ratio of 1:0.7 to 1:0.9 (known as Lipotecan®). […] The pharmaceutical composition was administered as a 30-min IV infusion, on days 1, 8, and 15 of a 28-day cycle (i.e. 3 IV infusions per 28-day cycle).
(§4) Serum samples were collected from the patients for pharmacokinetic analysis on day 1, day 8 and day 15 of Cycles 1 and 2, at the following times:
(§5) Post IV infusion: (Day 1 and 8 of Cycle 1): 33 min; 40 min; 50 min; 1 h; 1 h 30 min; 2 h; 4 h and 8 h. Post IV infusion (Day 15 of Cycle 1 and Day 1, 8, and 15 of Cycle 2): 4 h. Patients were assessed every 8 weeks, after 2 cycles of treatments.
(§6) During the 2-cycle study period, the patients were examined regularly for the following outcomes: • Side effect/DLT; • The pK profiles of the (S,S) and (S,R) diastereomers of TLC388HCl, its 3 metabolites (TLC-U1, TLC-U2 and Topotecan) on day 1 and day 8 of the treatment cycle; and • Anti-cancer efficacy.

[1] = human, in vivo
Procedure: as §1, §2, §3, §4, §5, §6

CC[C@@]1(O)C(=O)OCc2c1cc1n(c2=O)Cc2cc3c(CN(C)C)c(O)ccc3nc2-1 [Topotecan, reference compound]
AUC0-t (clinical; 1.3 mg/m2, AUC0-t): 5.32 ng·h/mL
Cmax (clinical; 1.3 mg/m2, Cmax): 1.06 ng/mL
Tmax (clinical; 1.3 mg/m2, Tmax): 0.906 h
half-life (clinical; 1.3 mg/m2, t1/2): 4.32 h
AUC0-t (clinical; 1.5 mg/m2, AUC0-t): 6.01 ng·h/mL
Cmax (clinical; 1.5 mg/m2, Cmax): 1.52 ng/mL
Tmax (clinical; 1.5 mg/m2, Tmax): 0.628 h
half-life (clinical; 1.5 mg/m2, t1/2): 4.76 h
AUC0-t (clinical; 3 mg/m2, AUC0-t): 11.7 ng·h/mL
Cmax (clinical; 3 mg/m2, Cmax): 2.1 ng/mL
half-life (clinical; 3 mg/m2, t1/2): 7.03 h
AUC0-t (clinical; 6 mg/m2, AUC0-t): 21.5 ng·h/mL
Cmax (clinical; 6 mg/m2, Cmax): 4.83 ng/mL
Tmax (clinical; 6 mg/m2, Tmax): 0.989 h
half-life (clinical; 6 mg/m2, t1/2): 6.87 h
AUC0-t (clinical; 9 mg/m2, AUC0-t): 27.6 ng·h/mL
Cmax (clinical; 9 mg/m2, Cmax): 6.38 ng/mL
Tmax (clinical; 9 mg/m2, Tmax): 1.15 h
half-life (clinical; 9 mg/m2, t1/2): 7.7 h
AUC0-t (clinical; 13.5 mg/m2): 37.6 ng·h/mL
Cmax (clinical; 13.5 mg/m2): 8.71 ng/mL
half-life (clinical; 13.5 mg/m2): 6.29 h
half-life (clinical; 20 mg/m2): 4.65 h
AUC0-t (clinical; 20 mg/m2, AUC0-t): 47.3 ng·h/mL
Cmax (clinical; 20 mg/m2, Cmax): 11.3 ng/mL
Tmax (clinical; 20 mg/m2, Tmax): 0.483 h
half-life (clinical; 20 mg/m2, t1/2): 5.07 h
half-life (clinical; 30 mg/m2): 4.63 h
AUC0-t (clinical; 30 mg/m2, AUC0-t): 97 ng·h/mL
Tmax (clinical; 30 mg/m2, Tmax): 1.54 h
half-life (clinical; 30 mg/m2, t1/2): 4.06 h
AUC0-t (clinical; 35 mg/m2, AUC0-t): 176 ng·h/mL
Cmax (clinical; 35 mg/m2, Cmax): 51.3 ng/mL
Tmax (clinical; 35 mg/m2, Tmax): 1 h
half-life (clinical; 35 mg/m2, t1/2): 7.66 h
Tmax (clinical; 40 mg/m2, Tmax): 0.85 h
half-life (clinical; 40 mg/m2, t1/2): 5.84 h
half-life (clinical; 50 mg/m2): 5.51 h
AUC0-t (clinical; 50 mg/m2, AUC0-t): 208 ng·h/mL
Cmax (clinical; 50 mg/m2, Cmax): 37.5 ng/mL
Tmax (clinical; 50 mg/m2, Tmax): 0.903 h
half-life (clinical; 50 mg/m2, t1/2): 7.39 h
AUC0-t (clinical; 60 mg/m2, AUC0-t): 215 ng·h/mL
Cmax (clinical; 60 mg/m2, Cmax): 57.1 ng/mL
Tmax (clinical; 60 mg/m2, Tmax): 0.837 h
half-life (clinical; 60 mg/m2, t1/2): 5.18 h
Tmax (clinical; 60 mg/m2, tmax): 0.93 ± 0.82 h
half-life (clinical; T1/2): > 2.5 h
Dose-normalized AUClast [1]: 8.52 ± 3.09 nM*h/(mg/m^2)
Dose-normalized Cmax [1]: 1.95 ± 1.04 nM/(mg/m^2)
difference between PK profiles on Day 1 and Day 8 [1]: no significant difference
dose proportionality of exposure [1]: roughly dose proportional
AUC0-t ([1]; 3 mg/m2): 7.866 ng·h/mL
AUC0-t ([1]; 6 mg/m2): 21.656 ng·h/mL
AUC0-t ([1]; 9 mg/m2): 37.978 ng·h/mL
AUC0-t ([1]; 20 mg/m2): 44.026 ng·h/mL
AUC0-t ([1]; 30 mg/m2): 120.74 ng·h/mL
AUC0-t ([1]; 35 mg/m2): 190.91 ng·h/mL
Cmax ([1]; 35 mg/m2): 58.075 ng/mL
Tmax ([1]; 35 mg/m2): 0.604 (0.156) hr
t1/2 ([1]; 35 mg/m2): 6.177 (3.376) hr
AUC0-t ([1]; 50 mg/m2): 207.30 ng·h/mL
AUC0-t ([1]; 60 mg/m2): 207.43 ng·h/mL
time at which peak plasma concentrations (Cmax) were achieved ([1]; iv): within one hour
time of rapid rise of the metabolites in the serum after starting the infusion ([1]; iv): ≤ 15 min
